Measured values reported in patent US6630125B2, “18F-labeled choline analogs” (priority 2000, dated 2003).
Read-outs that look alike come from different tables or passages of the source.

Assays:
yeast choline kinase = molecular target: T1, yeast choline kinase (Saccharomyces cerevisiae, UniProt P20485); assay: In vitro phosphorylation by yeast choline kinase; format: biochemical; settings: 1 μM choline; for In vitro phosphorylation: 25 mU/ml yeast choline kinase, 23° C., 10 min, n = 5
T1 sequence (P20485 1-582): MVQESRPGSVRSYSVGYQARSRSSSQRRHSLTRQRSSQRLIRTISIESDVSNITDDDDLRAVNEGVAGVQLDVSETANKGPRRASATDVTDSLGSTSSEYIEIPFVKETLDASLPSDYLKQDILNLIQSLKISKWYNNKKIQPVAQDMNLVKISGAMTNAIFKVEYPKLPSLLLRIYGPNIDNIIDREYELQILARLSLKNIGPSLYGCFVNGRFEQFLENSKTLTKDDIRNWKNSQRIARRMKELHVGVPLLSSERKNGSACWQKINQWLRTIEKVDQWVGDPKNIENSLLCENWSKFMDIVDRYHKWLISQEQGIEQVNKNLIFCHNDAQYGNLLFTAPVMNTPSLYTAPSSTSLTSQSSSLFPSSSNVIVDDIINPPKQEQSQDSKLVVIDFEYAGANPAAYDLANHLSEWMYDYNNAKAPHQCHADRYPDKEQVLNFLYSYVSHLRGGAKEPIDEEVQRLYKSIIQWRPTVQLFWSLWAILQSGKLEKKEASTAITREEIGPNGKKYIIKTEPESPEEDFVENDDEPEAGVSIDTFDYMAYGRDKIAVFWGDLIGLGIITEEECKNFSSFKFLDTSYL
Protocol: The test tube was gently agitated throughout the incubation period. The reaction was stopped by placing the tube in a boiling water bath for 2 min. To serve as controls, some samples were placed directly in the boiling water bath after addition of all substrates. […] The percentage of radioactivity converted to the phosphorylated form was calculated.

[1] = system: PC-3 prostate cancer cells; assay: Analysis of radiolabeled metabolites in PC-3 prostate cancer cells; format: cell-based, human; settings: PC-3 cells, 2 hr
Protocol: The primary hydrophilic metabolites of choline in mammals is phosphocholine and betaine. […] The HPLC system used a microprocessor-controlled solvent delivery system and a silica column (Adsorbosphere Silica (10μ), 250×4.6 mm, Alltech, Deerfield, Ill.). The column was kept at room temperature and the flow rate was maintained at 1.5 ml/min. […] Fractions of effluent were collected every 0.5 min and first counted for ^18F-radioactivity in a well-counter for experiments involving [^18F]FCH, then transferred to scintillation vials for counting for ^14C-radioactivity. The column was equilibrated for 6 min with Buffer A before injection. After the injection (<100 μl), Buffer A was delivered for 6 min which eluted betaine (3 min) from the column. […] Re-equilibration of the column with 100% A for 6 min preceded the next injection.
Methanol (1 ml) was added to each well and the cells were lysed by maintaining the temperature at 37° C. for 30 min. The methanol phase was transferred to a glass test tube. Each well was rinsed with an additional 0.5 ml methanol which was added to the original fraction. To each tube, 3 ml chloroform and 1 ml 0.25 M sodium phosphate (pH=4.5) were added to separate lipids from water-soluble molecules. After vigorous mixing of the samples for 1 min, the two phases were separated, and a 0.5 ml aliquot of each phase was counted for ^18F and ^14C radioactivity. The aqueous phase was further analyzed for water-soluble metabolites using the gradient-HPLC method previously described.
Cells incubated in 6-well plates for 2 hr with radiotracers were thoroughly washed to remove all extracellular radioactivity. The cells were lysed in methanol and the methanol solution added to chloroform to solubilize all lipophilic metabolites.

[2] = system: mice with PC-3 xenografts
Protocol: Body weight and tumor volume were measured weekly and tumor volume (mm3) was calculated using the formula S2×L/2, where S and L represent the small and large diameters of the tumor, respectively.
A prescribed duration of time was allowed before procurement of heart, liver, lung, blood, kidney, bone (femur), brain (whole), prostate gland, tumor, bladder, and skeletal muscle. The tissues were weighed, and counted for ^18F in a gamma counter, then dissolved in Solvable (Dupont, Boston Mass.) and counted for ^14C in a liquid scintillation counter. For the bladder, the percentage of the injected dose in the urine was determined. For all other tissues, radiotracer uptake was calculated as: […]

[3] = system: patients with prostate cancer; assay: PET imaging in patients with prostate cancer
Protocol: The distribution of FCH in PET imaging studies was evaluated in 14 patients with prostate cancer, 14 patients with breast cancer, and 5 patients with brain tumors. Imaging was performed using the Advance PET scanner (GE Medical Systems, Milwaukee, Wis.). […] In prostate cancer patients, a transmission scan of the pelvic region was obtained before administration of radiotracer. FCH (2.5-5 mCi) was administered intravenously, and dynamic imaging of the pelvis region was commenced for 20-30 min. During image reconstruction, the emission data in the pelvic region were corrected for photon attenuation using the transmission scan. Immediately following the dynamic scan, a whole-body emission scan was performed without transmission scanning for attenuation correction. The images were reconstructed using an Ordered Subset Expectation Maximum (OS-EM) algorithm. Regions-of-interest were drawn manually on the attenuation corrected images for evaluation of FCH kinetics in tissues. Standardized uptake values of FCH uptake in tissues were calculated using the attenuation-corrected images according to the equation: [formula]
Patient 2: Transmission and FCH emission scans of a person with hormone naive clinical stage T2 prostate cancer were commenced over the lower pelvis.
The same patient was scanned with FDG within the same week (FIG. 8).
Patient 4: A person with a history of clinical stage T3b prostate cancer treated by radical retropubic prostatectomy was diagnosed with metastatic disease by bone scan. FCH-PET imaging was performed before and after initiating androgen deprivation therapy. In the first study, whole-body emission scanning was started 5 min after injection, beginning at the pelvic region in order to image the pelvis and prostatic bed before arrival of urinary radioactivity. […] The patient was rescanned 2 weeks after initiating androgen deprivation therapy.
Patient 5: A person was initially diagnosed five years prior with locally advanced clinical stage T3NOMO prostate cancer and underwent radical prostatectomy followed by external beam radiation to the prostate bed. […] The patient was then treated with Zolex and Casodex.

[4] = system: patients with breast cancer; assay: PET imaging in patients with breast cancer; format: in vivo, human; settings: person, metastatic breast cancer
Protocol: In breast cancer patients, whole-body PET scans were obtained, beginning at 10 min post-administration of FCH. In patients with brain tumors, PET scans of the brain were obtained, beginning at 5 min post-administration of FCH.
Thirteen patients with metastatic breast cancer and one patient with both primary and metastatic breast cancer were each imaged with both FCH-PET and FDG-PET within a period of less than one month.
A person had undergone re-excision of right breast intraductal carcinoma 4 yr prior, then right modified radical mastectomy 3 yr prior followed by tamoxifen chemotherapy. Six months prior to the PET scans, metastatic breast cancer was detected by palpation (right breast sternal mass) and CT (mediastinal and hilar adenopathies, mass in right anterior pelvis). Tamoxifen therapy was stopped. […] Uptake of FCH was also observed in the corresponding tumors: sternal mass (SUV=14.6), mediastinal and hilar adenopathies (SUVs˜8.5), pelvic mass (SUV=6.5). […] Smaller metastases were indicated on the FCH-PET scan in the right chest wall and left lung that were not seen on the FDG-PET scan. Concerning the anterior pelvic tumor, there was observed a homogenous distribution of FDG across the tumor in the FDG-PET scan, whereas the FCH was preferentially distributed on the periphery of the tumor.

[5] = system: PC-3 human prostate cancer cells; assay: Accumulation of radiotracers by cultured PC-3 cells; format: cell-based
Protocol: The incubation media utilized for the experiments differed according to the cancer cell type (Table 1). On the day of the study, the medium was refreshed using a volume of 1 ml in each well. Cells were incubated in control conditions or with the addition of metabolic and growth factor receptor inhibitors to test the sensitivity of uptake of the radiotracers to specific inhibitions. […] Following a 30-min incubation period, the radiotracers (e.g., FDG or FCH) were added (˜2 µCi/well) and the cells were incubated for 2 hr. The cells were washed three times with phosphate buffered saline solution, released from the plates by briefly incubating with 0.05% trypsin in DMEM, transferred to test tubes, and counted for F-18 radioactivity in a gamma counter. The amount of radioactivity in the cells was normalized by the dose administered to each well.
The present work studies the structure-activity relationships for purposes of optimization of the molecule for imaging prostate cancer. […] A number of structural analogs of choline were labeled as N-[^18F]fluoromethyl derivatives via the intermediate [^18F]fluorobromomethane (see Table 3). Uptake of the radiotracers was assessed in cultured PC-3 human prostate cancer cells and in a murine PC-3 xenograft model.

normal human subjects = settings: cited from earlier work
BALB/c nude mice = assay: Acute toxicity study in mice; format: in vivo; settings: 1 mg/kg body weight
Protocol: Four unanesthetized BALB/c nude mice were administered 1 mg/kg [^19F]FCH via tail vein injection and monitored for 48 hr. This dose represented an approximately 300,000 fold excess of FCH in comparison to the normal dose that a 70 kg person would receive in a [^18F]FCH study. The mice were euthanized at 48 hr.
Acute toxicity of 1 mg/kg body weight of [^19F]FCH was determined in four untreated BALB/c mice. […] Based on estimates of specific activity of the [^18F]FCH (2 Ci/mmol), the normal dose of FCH in the radiotracer preparation would be a factor of 300,000 times lower than the dose given in this toxicity study.

With `C[N+](C)(C)CCO` [CH, [methyl-^14C]Choline, reference compound] the In vitro phosphorylation (yeast choline kinase) was 55.9 ± 11.0%, the “oxidation in the cancer cells (betaine / fluorobetaine by HPLC)” value [1] was “negligible” and the “Uptake in Blood” value ([2]; 10 min) was 2.1 ± 0.3 % dose kg/100 g. For the same molecule, the “Uptake in Brain” value ([2]; 10 min) was 1.4 ± 0.7 % dose kg/100 g, the “Uptake in Heart” value ([2]; 10 min) was 20.3 ± 7.2 % dose kg/100 g and the “Uptake in Kidney” value ([2]; 10 min) was 99.0 ± 12.9 % dose kg/100 g. The “Uptake in Liver” value ([2]; 10 min) was 52.3 ± 11.9 % dose kg/100 g, the “Uptake in Lung” value ([2]; 10 min) was 26.0 ± 9.6 % dose kg/100 g and the “Uptake in Prostate” value ([2]; 10 min) was 9.0 ± 6.8 % dose kg/100 g. For the same molecule, the “Uptake in Skeletal Muscle” value ([2]; 10 min) was 4.7 ± 1.7 % dose kg/100 g, the “Uptake in Tumor” value ([2]; 10 min) was 3.2 ± 1.8 % dose kg/100 g and the “Uptake in Blood” value ([2]; 30 min) was 1.5 ± 0.9 % dose kg/100 g. For the same molecule, the “Uptake in Brain” value ([2]; 30 min) was 1.0 ± 0.8 % dose kg/100 g, the “Uptake in Heart” value ([2]; 30 min) was 9.7 ± 1.9 % dose kg/100 g and the “Uptake in Kidney” value ([2]; 30 min) was 53.4 ± 7.3 % dose kg/100 g. The “Uptake in Liver” value ([2]; 30 min) was 65.2 ± 19.4 % dose kg/100 g, the “Uptake in Lung” value ([2]; 30 min) was 9.6 ± 6.6 % dose kg/100 g and the “Uptake in Prostate” value ([2]; 30 min) was 5.9 ± 2.5 % dose kg/100 g. For the same molecule, the “Uptake in Skeletal Muscle” value ([2]; 30 min) was 2.5 ± 1.5 % dose kg/100 g, the “Uptake in Tumor” value ([2]; 30 min) was 4.8 ± 1.6 % dose kg/100 g and the “Uptake in Blood” value ([2]; 60 min) was 2.2 ± 1.0 % dose kg/100 g. For the same molecule, the “Uptake in Brain” value ([2]; 60 min) was 1.7 ± 0.6 % dose kg/100 g, the “Uptake in Heart” value ([2]; 60 min) was 9.1 ± 2.5 % dose kg/100 g and the “Uptake in Kidney” value ([2]; 60 min) was 41.5 ± 15.0 % dose kg/100 g. The “Uptake in Liver” value ([2]; 60 min) was 67.1 ± 49.7 % dose kg/100 g, the “Uptake in Lung” value ([2]; 60 min) was 16.7 ± 3.7 % dose kg/100 g and the “Uptake in Prostate” value ([2]; 60 min) was 5.5 ± 2.6 % dose kg/100 g. For the same molecule, the “Uptake in Skeletal Muscle” value ([2]; 60 min) was 2.8 ± 1.7 % dose kg/100 g, the “Uptake in Tumor” value ([2]; 60 min) was 6.7 ± 2.5 % dose kg/100 g and the “injected dose in the urinary bladder” value ([2]; at 30 min) was 1%.
With `OC[C@H]1OC(O)[C@H]([18F])[C@@H](O)[C@@H]1O` (some centres unmarked) [FDG, [^18F]fluoro-2-deoxy-glucose, reference compound] the “SUV of osseous lesion (pubic ramus)” value ([3]; Example 11 patient, metastatic prostate cancer) was 6.5, the “SUV values relative to FCH in the same lesions” value ([3]; Patient 3) was “approximately one half” and the “SUV index in osseous lesions” value ([3]; patient #3, FIG. 8) was 4.1. The “SUV of pelvic tumor / pelvic mass” value [4] was 9.5, the “SUV of sternal mass” value [4] was 5.0 and the “SUVs of mediastinal and hilar adenopathies” value [4] was roughly 5.5. The “Uptake in Blood” value ([2]; 45 min) was 2.8 ± 0.009 % dose kg/100 g, the “Uptake in Brain” value ([2]; 45 min) was 8.0 ± 0.7 % dose kg/100 g and the “Uptake in Heart” value ([2]; 45 min) was 48.2 ± 17.9 % dose kg/100 g. The “Uptake in Kidney” value ([2]; 45 min) was 5.3 ± 1.9 % dose kg/100 g, the “Uptake in Liver” value ([2]; 45 min) was 1.5 ± 0.4 % dose kg/100 g and the “Uptake in Lung” value ([2]; 45 min) was 7.4 ± 3.1 % dose kg/100 g. For the same molecule, the “Uptake in Prostate” value ([2]; 45 min) was 2.3 ± 0.4 % dose kg/100 g, the “Uptake in Skeletal Muscle” value ([2]; 45 min) was 8.3 ± 0.4 % dose kg/100 g and the “Uptake in Tumor” value ([2]; 45 min) was 8.9 ± 0.7 % dose kg/100 g.
For `C[N+](C)(CCO)CC[18F]` [HARA-1, 2-[^18F]fluoroethyl-dimethyl-2-hydroxyethyl-ammonium, reference compound], the “accumulation by cultured PC-3 cells compared with other tracers” value ([5]; control conditions) was “one fifth of the uptake of FCH”, the “Uptake by PC-3 cancer cells, Control” value ([5]; control, 2 hr incubation) was 0.32 ± 0.05 % dose/2 hr/105 cells plated and the “Uptake by PC-3 cells” value ([5]; inhibitor none) was 0.322 ± 0.054 % dose/2 hr/10^5 cells plated. For the same molecule, the “phosphorylation rate, less than for FCH” value (yeast choline kinase) was “approximately 30%”, the In vitro phosphorylation (yeast choline kinase) was 43.4 ± 3.4 % and the “urinary excretion compared with CH” value (normal human subjects) was “more prominent urinary excretion of radioactivity”.
With `C[N+](C)(CF)CCO.[Cl-]` [[^19F]FCH, Dimethylfluoromethyl-2-hydroxyethylammonium Chloride] the behavioural/movement abnormalities (BALB/c nude mice; 48 hr monitoring) was “Neither were any behavioural/movement abnormalities observed” and the deaths (BALB/c nude mice; tail vein, up to 48 hr, four mice) was “No deaths were observed”.
